Data published in BigSolDB 2.1.

CN[C@@H]1[C@H](O)[C@H](NC)[C@H]2O[C@@]3(O)C(=O)C[C@@H](C)O[C@H]3O[C@@H]2[C@H]1O.Cl.Cl.O.O.O.O.O
solubility (mole fraction)
Details	278.15 K	283.15 K	288.15 K	293.15 K	298.15 K	303.15 K	308.15 K	313.15 K	318.15 K
in ethanol	0.00342	0.00412	0.00443	0.00484	0.00545	0.00629	0.00664	0.00738	0.00807
in isopropanol	0.00031	0.0004	0.00051	0.00066	0.00074	0.00086	0.00101	0.00114	0.00131
in methanol	0.00988	0.0138	0.0185	0.0226	0.032	0.0385	0.0439	0.0531	0.0629
in n-propanol	0.00098	0.00125	0.00157	0.00219	0.0027	0.00336	0.00373	0.00447	0.00531
